Where “and” joins values, the source holds several entries; their conditions need not be identical. Equal values may be shown once.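 These data come from cells grown in 96-well plates and exposed to compound for 48 hours at five concentrations. GI50: concentration for 50% inhibition of growth. TGI: total growth inhibition.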
Assays:
Experiment in all cases: NCI tumour cell line growth inhibition, 48 h
[1] = system: ACHN renal
[2] = system: EKVX NSCLC
[3] = system: HCC-2998 colon
[4] = system: HCT-15 colon
[5] = system: LOX IMVI melanoma
[6] = system: MDA-MB-435
[7] = system: OVCAR-8 ovarian
[8] = system: SF-539 CNS
[9] = system: SW-620 colon
[10] = system: UO-31 renal

`NC(=NCCCCCCN=C(N)/N=C(\N)Nc1ccc(Cl)cc1)/N=C(\N)Nc1ccc(Cl)cc1` showed a GI50 [1] of 2.18 µM, a TGI [1] of 8.36 µM and a GI50 [2] of 1.53 µM. It also gave a TGI [2] of 8.3 µM, a GI50 [3] of 1.8 µM and a TGI [3] of 6.33 µM. For the same molecule, the GI50 [4] was 2 µM, the TGI [4] was 9.46 µM and the GI50 [5] was 0.958 µM. For the same molecule, the TGI [5] was 2.19 µM, the GI50 [6] was 1.54 µM and the TGI [6] was 5.94 µM. For the same molecule, the GI50 [7] was 1.67 µM, the TGI [7] was 7.19 µM and the GI50 [8] was 1.62 µM. The TGI [8] was 3.98 µM, the GI50 [9] was 1.54 µM and the TGI [9] was 5.15 µM. For the same molecule, the GI50 [10] was 2.61 µM and the TGI [10] was 11 µM.

Work on `Nc1nc(SCc2ccccc2CCl)c2[nH]cnc2n1` yielded a GI50 [1] of 18.6 µM, a TGI [1] of 74.6 µM and a GI50 [2] of 12.9 µM. The TGI [2] was 25.9 µM, the GI50 [3] was 18.8 µM and the TGI [3] was 33.3 µM. For the same molecule, the GI50 [4] was 14.5 µM, the TGI [4] was 31.1 µM and the GI50 [5] was 12.7 µM. It also gave a TGI [5] of 26.9 µM, a GI50 [6] of 12.8 µM and a TGI [6] of 25.7 µM. The GI50 [7] was 28.2 µM, the TGI [7] was > 100 µM and the GI50 [8] was 21.9 µM. The TGI [8] was 54 µM, the GI50 [9] was 14.8 µM and the TGI [9] was 29.2 µM. It also gave a GI50 [10] of 10.5 µM and a TGI [10] of 71.9 µM.

With `O=c1cc(-c2ccccc2)oc2ccc(Cl)cc12` the TGI [1] was > 90.6 µM, the TGI [2] was > 97 µM and the TGI [3] was > 100 µM. The TGI [4] was > 100 µM, the TGI [5] was > 80.1 µM and the TGI [6] was > 60.1 µM. The TGI [7] was > 100 µM, the TGI [8] was > 97.4 µM and the TGI [9] was > 100 µM. For the same molecule, the TGI [10] was > 88.8 µM.

`Nc1ncn([C@H]2CC(O)[C@@H](CO)S2)c(=O)n1` (some centres undefined) was tested, and the GI50 [1] was 0.266 µM, the TGI [1] was > 100 µM and the GI50 [2] was 32.8 µM. For the same molecule, the TGI [2] was > 100 µM, the GI50 [3] was 2.44 µM and the TGI [3] was > 100 µM. The GI50 [4] was 1.71 µM, the TGI [4] was > 100 µM and the GI50 [5] was 4.48 µM. For the same molecule, the TGI [5] was > 100 µM, the GI50 [6] was 0.783 µM and the TGI [6] was > 100 µM. For the same molecule, the GI50 [7] was 0.42 µM, the TGI [7] was > 100 µM and the GI50 [8] was 16.7 µM. The TGI [8] was > 100 µM, the GI50 [9] was 1.48 µM and the TGI [9] was > 100 µM. For the same molecule, the GI50 [10] was 2.93 µM and the TGI [10] was > 100 µM.

In the case of `Clc1ccc(C=Nc2ccc(-c3nc4ccccc4[nH]3)cc2)cc1`, the GI50 [1] is reported as > 100 µM, the TGI [1] is reported as > 100 µM and the GI50 [2] is reported as > 100 µM. For the same molecule, the TGI [2] was > 100 µM, the GI50 [3] was > 100 µM and the TGI [3] was > 100 µM. The GI50 [4] was > 100 µM, the TGI [4] was > 100 µM and the GI50 [5] was > 100 µM. The TGI [5] was > 100 µM, the GI50 [6] was > 100 µM and the TGI [6] was > 100 µM. The GI50 [7] was > 100 µM, the TGI [7] was > 100 µM and the GI50 [8] was > 100 µM. The TGI [8] was > 100 µM, the GI50 [9] was > 100 µM and the TGI [9] was > 100 µM. The GI50 [10] was > 100 µM and the TGI [10] was > 100 µM.

For `O=c1[nH]c2cc(Cl)ccc2nc1/C(=N\Nc1ccccc1)C(O)c1ccc2c(c1)OCO2` (centres undefined), the TGI [1] was > 100 µM, the TGI [2] was > 100 µM and the TGI [3] was > 100 µM. For the same molecule, the TGI [4] was > 100 µM, the TGI [5] was > 100 µM and the TGI [6] was > 100 µM. The TGI [7] was > 100 µM, the TGI [8] was > 100 µM and the TGI [9] was > 100 µM. The TGI [10] was > 100 µM.

`CCN(CC)CCOC(COc1cc(C)cc(C)c1)COc1cc(C)cc(C)c1` showed a GI50 [1] of 3.6 µM, a TGI [1] of 13.8 µM and a GI50 [2] of 2.91 µM. For the same molecule, the TGI [2] was 11.8 µM, the GI50 [3] was 1.72 µM and the TGI [3] was 3.5 µM. The GI50 [4] was 3.01 µM, the TGI [4] was 12.4 µM and the GI50 [5] was 1.31 µM. For the same molecule, the TGI [5] was 2.73 µM, the GI50 [6] was 1.64 µM and the TGI [6] was 3.63 µM. The GI50 [7] was 7.23 µM, the TGI [7] was 22.2 µM and the GI50 [8] was 1.62 µM. It also gave a TGI [8] of 3.3 µM, a GI50 [9] of 1.59 µM and a TGI [9] of 4.63 µM. For the same molecule, the GI50 [10] was 2.19 µM and the TGI [10] was 13 µM.

For `Cc1ccc(-c2nc(NCCOCCOCCN)nc(N3CCN(c4ccccn4)CC3)n2)cc1`, the GI50 [1] was 14.7 µM, the TGI [1] was 32.4 µM and the GI50 [2] was 15.8 µM. The TGI [2] was 33 µM, the GI50 [3] was 8.01 µM and the TGI [3] was 21.9 µM. For the same molecule, the GI50 [4] was 10.1 µM, the TGI [4] was 29.8 µM and the GI50 [5] was 8.82 µM. It also gave a TGI [5] of 25.9 µM, a GI50 [6] of 10.5 µM and a TGI [6] of 30.2 µM. For the same molecule, the GI50 [7] was 17.8 µM, the TGI [7] was 37.5 µM and the GI50 [8] was 16.8 µM. For the same molecule, the TGI [8] was 35.1 µM, the GI50 [9] was 11 µM and the TGI [9] was 29.2 µM. For the same molecule, the GI50 [10] was 13.3 µM and the TGI [10] was 29.9 µM.

For `COc1cc(C(=O)c2cnc(-c3c[nH]c4cccc(C)c34)[nH]2)cc(OC)c1OC`, the GI50 [1] was 0.00846 µM, the TGI [1] was 26.7 µM and the GI50 [2] was 0.00804 µM. The GI50 [3] was 0.0183 µM, the TGI [3] was 29.4 µM and the GI50 [4] was 0.00659 µM. For the same molecule, the TGI [4] was > 100 µM, the GI50 [5] was 0.0151 µM and the TGI [5] was > 100 µM. The GI50 [6] was 0.00222 µM, the TGI [6] was 0.0051 µM and the GI50 [7] was 0.0078 µM. For the same molecule, the TGI [7] was 43.2 µM, the GI50 [8] was 0.00289 µM and the TGI [8] was 0.00874 µM. The GI50 [9] was 0.00416 µM, the TGI [9] was > 100 µM and the GI50 [10] was 0.00965 µM. For the same molecule, the TGI [10] was 14.7 µM.

With `C/C=C/C=C/c1cc2cc3c(c(O)c2c(=O)[nH]1)C1(CC3)C(O)=c2c(=O)c3c(=O)cc(OC)c(=O)c=3c(=O)c2=C1O` (centres undefined) the TGI [1] was 1.7 µM and 16.5 µM, the GI50 [2] was 0.188 µM and 1.12 µM and the TGI [2] was 3 µM and 12.2 µM. For the same molecule, the TGI [3] was 1.33 µM and 11.3 µM, the TGI [4] was 3.68 µM and 15.1 µM and the GI50 [5] was 1.27 µM. For the same molecule, the TGI [5] was 9.5 µM, the TGI [6] was 10.8 µM and the GI50 [7] was 0.145 µM and 0.902 µM. For the same molecule, the TGI [7] was 5.15 µM and 15.5 µM, the GI50 [8] was 0.363 µM and 2.33 µM and the TGI [8] was 2.48 µM and 10.6 µM. For the same molecule, the TGI [9] was 1.47 µM and 13 µM, the GI50 [10] was 0.17 µM and 1.37 µM and the TGI [10] was 16.3 µM and 9.83 µM.

With `CCCCNc1ncnc2c1cnn2-c1ccccc1` the GI50 [1] was 9.6 µM, the TGI [1] was > 100 µM and the GI50 [2] was 7.72 µM. For the same molecule, the TGI [2] was > 86.6 µM, the GI50 [3] was 5.72 µM and the TGI [3] was 37.8 µM. The GI50 [4] was 0.947 µM, the TGI [4] was > 50.1 µM and the GI50 [5] was 3.7 µM. For the same molecule, the TGI [5] was > 100 µM, the GI50 [6] was 0.237 µM and the TGI [6] was 0.7 µM. The GI50 [7] was 4.62 µM, the TGI [7] was > 88.1 µM and the GI50 [8] was 4.05 µM. The TGI [8] was > 100 µM, the GI50 [9] was 0.709 µM and the TGI [9] was > 100 µM. It also gave a GI50 [10] of 7.44 µM and a TGI [10] of 71.2 µM.

`CC(=O)ON(OCc1ccc2ccccc2c1)C(C)=O` was tested, and the GI50 [1] was > 100 µM, the TGI [1] was > 100 µM and the GI50 [2] was 32.3 µM. For the same molecule, the TGI [2] was > 100 µM, the GI50 [3] was > 100 µM and the TGI [3] was > 100 µM. For the same molecule, the GI50 [4] was > 100 µM, the TGI [4] was > 100 µM and the GI50 [5] was 85.4 µM. For the same molecule, the TGI [5] was > 100 µM, the GI50 [6] was > 100 µM and the TGI [6] was > 100 µM. The GI50 [7] was > 100 µM, the TGI [7] was > 100 µM and the GI50 [8] was > 100 µM. The TGI [8] was > 100 µM, the GI50 [9] was > 100 µM and the TGI [9] was > 100 µM. For the same molecule, the GI50 [10] was 85 µM and the TGI [10] was > 100 µM.

With `Cc1nc2c(C)ccc([N+](=O)[O-])c2c(NCCCN(C)C)c1C` the TGI [1] was > 100 µM, the TGI [2] was > 100 µM and the TGI [3] was > 55.4 µM. The TGI [4] was > 54.2 µM, the TGI [5] was > 100 µM and the TGI [6] was > 100 µM. For the same molecule, the TGI [7] was > 71.6 µM, the TGI [8] was > 100 µM and the TGI [9] was > 53 µM. For the same molecule, the TGI [10] was > 100 µM.

`CNC(=O)CCN1CCN(CC/C=C2\c3ccccc3Sc3ccc(Cl)cc32)CC1` gave a GI50 [1] of 13.8 µM, a TGI [1] of 27.1 µM and a GI50 [2] of 14.5 µM. For the same molecule, the TGI [2] was 30.6 µM, the GI50 [3] was 7.94 µM and the TGI [3] was 24.2 µM. For the same molecule, the GI50 [4] was 6.57 µM, the TGI [4] was 20.6 µM and the GI50 [5] was 5.15 µM. The TGI [5] was 18.9 µM, the GI50 [6] was 1.96 µM and the TGI [6] was 4.91 µM. It also gave a GI50 [7] of 14.4 µM, a TGI [7] of 32.2 µM and a GI50 [8] of 12.5 µM. For the same molecule, the TGI [8] was 25.6 µM, the GI50 [9] was 9.18 µM and the TGI [9] was 23.6 µM. The GI50 [10] was 11.4 µM and the TGI [10] was 27.4 µM.
